What all share (assay type): in vivo
The subject of test [1] is goosegrass (Eleusine indica). Nature of the test: Test C pre/postemergence. The conditions noted are these: Preemergence. An excerpt: (§1) Seeds or nutlets of plant species selected from bermudagrass (Cynodon dactylon), Surinam grass (Brachiaria decumbens), cocklebur (Xanthium strumarium), corn (Zea mays), crabgrass (Digitaria sanguinalis), woolly cupgrass (Eriochloa villosa), giant foxtail (Setaria faberii), goosegrass (Eleusine indica), johnsongrass (Sorghum halepense), kochia (Kochia scoparia), lambsquarters (Chenopodium album), morningglory (Ipomoea coccinea), eastern black nightshade (Solanum ptycanthum), yellow nutsedge (Cyperus esculentus), pigweed (Amaranthus retroflexus), common ragweed (Ambrosia elatior), soybean (Glycine max), common (oilseed) sunflower (Helianthus annuus), and velvetleaf (Abutilon theophrasti) were planted and treated preemergence with test chemicals formulated in a non-phytotoxic solvent mixture which included a surfactant.
(§2) At the same time, plants selected from these crop and weed species and also winter barley (Hordeum vulgare), blackgrass (Alopecurus myosuroides), canarygrass (Phalaris minor), chickweed (Stellaria media), downy brome (Bromus tectorum), green foxtail (Setaria viridis), Italian ryegrass (Lolium multiflorum), wheat (Triticum aestivum), wild oat (Avena fatua) and windgrass (Apera spica-venti) were treated with postemergence applications of some of the test chemicals formulated in the same manner. Plants ranged in height from 2 to 18 cm (1- to 4-leaf stage) for postemergence treatments. Plant species in the flooded paddy test consisted of rice (Oryza sativa), umbrella sedge (Cyperus difformis), duck salad (Heteranthera limosa) and barnyardgrass (Echinochloa crus-galli) grown to the 2-leaf stage for testing. Treated plants and controls were maintained in a greenhouse for 12 to 14 days, after which time all species were compared to controls and visually evaluated. Plant response ratings, summarized in Table C, are based on a scale of 0 to 100 where 0 is no effect and 100 is complete control. A dash (-) response means no test result.

Test [2] has as its system velvetleaf (Abutilon theophrasti). Nature of the test: Test C pre/postemergence. Particulars: Preemergence.
From the text: as §1, §2

Test [3] concerns giant foxtail (Setaria faberii). Nature of the test: Test C pre/postemergence. The conditions noted are these: Preemergence.
From the text: as §1, §2

The subject of test [4] is lambsquarters (Chenopodium album). Nature of the test: Test C pre/postemergence. Particulars: Preemergence.
From the text: as §1, §2

Test [5] has as its system giant foxtail (Setaria faberi). The test can be described thus: Test A pre/postemergence. The conditions noted are these: Setaria faberi, 240 h, read-out: Plant response rating, Foxtail, Giant; for pest or weed control at 125 g/ha: 125 g ai/ha; for pest or weed control at 500 g/ha: 500 g ai/ha. The essentials: (§3)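 Greenhouse herbicide test with preemergence directed soil spray and postemergence foliar spray at the 1- to 2-leaf stage; visual control rating 0–100 versus untreated at ~10 days.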

The subject of test [6] is crabgrass (Digitaria sanguinalis). Nature of the test: Test A pre/postemergence. The conditions noted are these: Digitaria sanguinalis, 240 h, read-out: Plant response rating, Crabgrass; for pest or weed control at 125 g/ha: 125 g ai/ha; for pest or weed control at 500 g/ha: 500 g ai/ha. The essentials: as §3
Test [7] deals with velvetleaf (Abutilon theophrasti). Nature of the test: Test A pre/postemergence. The conditions noted are these: Abutilon theophrasti, 240 h, read-out: Plant response rating, Velvetleaf; for pest or weed control at 125 g/ha: 125 g ai/ha; for pest or weed control at 500 g/ha: 500 g ai/ha. The essentials:
as §3

The test system of test [8] is redroot pigweed (Amaranthus retroflexus). The test can be described thus: Test A pre/postemergence. The conditions noted are these: Amaranthus retroflexus, 240 h, read-out: Plant response rating, Pigweed; for pest or weed control at 125 g/ha: 125 g ai/ha; for pest or weed control at 500 g/ha: 500 g ai/ha. Summed up:
as §3

Test [9] has as its system morningglory (Ipomoea spp.). The test can be described thus: Test A pre/postemergence. Particulars: Ipomoea, 240 h, read-out: Plant response rating, Morningglory; for pest or weed control at 125 g/ha: 125 g ai/ha; for pest or weed control at 500 g/ha: 500 g ai/ha. The essentials:
as §3

Test [10] concerns barnyardgrass (Echinochloa crus-galli). Nature of the test: Test A pre/postemergence. Particulars: Echinochloa crus-galli, 240 h, read-out: Plant response rating, Barnyardgrass; for pest or weed control at 125 g/ha: 125 g ai/ha; for pest or weed control at 500 g/ha: 500 g ai/ha. Summed up: as §3
Setting [11] is: 31 g ai/ha, scale 0 to 100, 0 no effect, 100 complete control.
Where [12] appears, read: 62 g ai/ha, scale 0 to 100, 0 no effect, 100 complete control.
[13] abbreviates: post-emergence, Postemergence, 0 to 100 scale (0 no effect, 100 complete control).
The mark [14] stands for this setting: pre-emergence, Preemergence, 0 to 100 scale where 0 is no effect and 100 is complete control, approximately ten days.

Where two headings read alike, the source gives them in different places.

Regarding `CCOC(=O)Cc1nc(C2CC2)nc(N)c1Br` [Compound 12], the “Plant response rating, Goosegrass” value in test [1] (setting [11]) was 0; in [1] (setting [12]), 0; in test [1] (125 g ai/ha, scale 0 to 100), 0; in test [1] (250 g ai/ha, scale 0 to 100), 0. In addition, the “Plant response rating, Velvetleaf” value came out at 0 in test [2] (setting [11]); 5 in [2] (setting [12]); 50 in test [2] (125 g ai/ha, scale 0 to 100); 70 in [2] (250 g ai/ha, scale 0 to 100). The “Plant response rating, Foxtail, Giant” value in [3] (setting [11]) is on record as 0; in test [3] (setting [12]), 0; in [3] (125 g ai/ha, scale 0 to 100), 0; in [3] (250 g ai/ha, scale 0 to 100), 0. In addition, the “Plant response rating, Lambsquarters” value in test [4] (setting [11]) came out at 0; in [4] (setting [12]) it was 10; in test [4] (125 g ai/ha, scale 0 to 100), 40; in [4] (250 g ai/ha, scale 0 to 100), 70.

Turning to `CCOC(=O)C(Cl)c1nc(C2CC2)nc(N)c1Br` (stereo not shown) [Compound 31], the “Plant response rating, Goosegrass” value in test [1] (setting [11]) stood at 0; in test [1] (setting [12]), 0; in [1] (125 g ai/ha, scale 0 to 100) it was 0; in test [1] (250 g ai/ha, scale 0 to 100) it was 20. Moreover, the “Plant response rating, Velvetleaf” value came out at 0 in test [2] (setting [11]); 0 in test [2] (setting [12]); 0 in [2] (125 g ai/ha, scale 0 to 100); 60 in test [2] (250 g ai/ha, scale 0 to 100). The “Plant response rating, Foxtail, Giant” value in [3] (setting [11]) is given as 0; in [3] (setting [12]) it was 0; in [3] (125 g ai/ha, scale 0 to 100), 0; in [3] (250 g ai/ha, scale 0 to 100), 0. The “Plant response rating, Lambsquarters” value in test [4] (setting [11]) is reported as 0; in test [4] (setting [12]) it was 40; in test [4] (125 g ai/ha, scale 0 to 100), 40; in [4] (250 g ai/ha, scale 0 to 100), 80.

Consider `CCOC(=O)c1nc(C2CC2)nc(N=CN(C)C)c1Br` [Compound 40], for which the “Plant response rating, Goosegrass” value in [1] (setting [12]) was found to be 0; in [1] (125 g ai/ha, scale 0 to 100), 0; in test [1] (250 g ai/ha, scale 0 to 100), 5; in test [1] (500 g ai/ha, scale 0 to 100) it was 40. Further, the “Plant response rating, Velvetleaf” value in test [2] (setting [12]) is listed as 0; in test [2] (125 g ai/ha, scale 0 to 100), 70; in test [2] (250 g ai/ha, scale 0 to 100) it was 90; in [2] (500 g ai/ha, scale 0 to 100), 100. For the same compound, the “Plant response rating, Foxtail, Giant” value in test [3] (setting [12]) stood at 0; in test [3] (125 g ai/ha, scale 0 to 100) it was 0; in test [3] (250 g ai/ha, scale 0 to 100), 30; in test [3] (500 g ai/ha, scale 0 to 100), 35. The “Plant response rating, Lambsquarters” value in test [4] (setting [12]) was found to be 100; in test [4] (125 g ai/ha, scale 0 to 100), 100; in test [4] (250 g ai/ha, scale 0 to 100), 100; in [4] (500 g ai/ha, scale 0 to 100), 100.

Consider `COC(=O)Cc1nc(C2CC2)nc(N)c1Br` [Compound 13], for which the “Plant response rating, Goosegrass” value in test [1] (setting [11]) is recorded as 0; in [1] (setting [12]), 0; in test [1] (125 g ai/ha, scale 0 to 100), 0; in test [1] (250 g ai/ha, scale 0 to 100), 0. In addition, the “Plant response rating, Velvetleaf” value is given as 60 in test [2] (setting [11]); 60 in test [2] (setting [12]); 80 in test [2] (125 g ai/ha, scale 0 to 100); 90 in test [2] (250 g ai/ha, scale 0 to 100). Besides, the “Plant response rating, Foxtail, Giant” value in test [3] (setting [11]) is given as 0; in [3] (setting [12]), 0; in test [3] (125 g ai/ha, scale 0 to 100), 0; in test [3] (250 g ai/ha, scale 0 to 100) it was 5. Besides, the “Plant response rating, Lambsquarters” value in [4] (setting [11]) was 50; in [4] (setting [12]) it was 85; in test [4] (125 g ai/ha, scale 0 to 100), 90; in [4] (250 g ai/ha, scale 0 to 100), 90.

As for `COC(=O)c1nc(C2CC2)nc(N)c1OC` [Compound 59], the pest or weed control at 125 g/ha in test [5] (setting [13]) was determined as 0%; in [5] (setting [14]), 0%; in test [6] (setting [13]), 0%; in test [6] (setting [14]), 0%; in [7] (setting [13]) it was 60%; in test [7] (setting [14]), 10%. Also, the pest or weed control at 125 g/ha turned out to be 60% in test [8] (setting [13]); 20% in [8] (setting [14]); 90% in test [9] (setting [13]); 80% in [9] (setting [14]); 0% in test [10] (setting [13]); 0% in [10] (setting [14]). Besides, the pest or weed control at 500 g/ha in test [5] (setting [13]) stood at 35%; in test [5] (setting [14]), 0%; in test [6] (setting [13]), 10%; in [6] (setting [14]), 0%; in test [7] (setting [13]), 85%; in [7] (setting [14]), 45%. For the same compound, the pest or weed control at 500 g/ha in test [8] (setting [13]) was 80%; in test [8] (setting [14]) it was 70%; in test [9] (setting [13]), 100%; in test [9] (setting [14]), 100%; in test [10] (setting [13]), 30%; in [10] (setting [14]), 15%.

(Values after patent publication US8802597B2, “Herbicidal pyrimidines” (E I du Pont de Nemours and Company, priority 2003, dated 2014).)
